What all share (type): biochemical
The target in experiment [1] is T1, FL-CHK1 (Homo sapiens, UniProt O14757).
T1 construct: C-terminally His-tagged full-length human CHK1 (FL-CHK1); 6xHis (C); made in house; host or cells: baculovirus/insect cells
T1 sequence (O14757 1-476): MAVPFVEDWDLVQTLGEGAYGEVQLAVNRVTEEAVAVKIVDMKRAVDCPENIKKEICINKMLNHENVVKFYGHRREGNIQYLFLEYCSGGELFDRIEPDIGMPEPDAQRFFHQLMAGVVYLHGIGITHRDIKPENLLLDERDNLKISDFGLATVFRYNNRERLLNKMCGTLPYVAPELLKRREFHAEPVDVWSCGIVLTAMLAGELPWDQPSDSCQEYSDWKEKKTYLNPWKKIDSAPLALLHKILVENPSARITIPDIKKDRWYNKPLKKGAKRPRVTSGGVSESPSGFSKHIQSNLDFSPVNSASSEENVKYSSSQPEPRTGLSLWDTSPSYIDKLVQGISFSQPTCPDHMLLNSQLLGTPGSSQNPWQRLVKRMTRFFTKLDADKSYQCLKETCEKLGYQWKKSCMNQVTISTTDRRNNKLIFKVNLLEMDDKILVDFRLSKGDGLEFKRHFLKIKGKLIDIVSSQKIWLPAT
The experiment is described as follows: CHK1 assay. The conditions noted are these: 20 μM; combinatorial library compounds. The method in brief: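 Full-length human CHK1 with C-terminal 6×His tag, made in baculovirus/insect cells, 10 nM, phosphorylating 0.125 mM Syntide-2 with 0.15 mM ATP in 50 mM Tris pH 7.5, 25 mM MgCl2, 400 mM NaCl. PK/LDH-coupled NADH oxidation read at 340 nm. Ki from initial rates over varied compound concentrations.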

For experiment [2], the target named is CDK2/Cyclin A complex (Homo sapiens, UniProt P24941). Put plainly: CDK2/Cyclin A assay. The conditions noted are these: 1.0 μM; combinatorial library compounds. The method in brief: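 Radiometric assay: 150 nM CDK2/cyclin A (insect-cell CDK2, truncated cyclin A) phosphorylates His-tagged Rb fragment (residues 386-928) with 25 μM ATP plus [32P]ATP, pH 7.4 HEPES, 2% DMSO, 30 °C for 20 min. Filter-captured product counted by phosphorimager; apparent Ki from competitive or tight-binding inhibition fits.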

Experiment [3] concerns the target T2, CDK4/Cyclin D3 complex (Homo sapiens, UniProt P11802).
T2 construct: made in house; host or cells: insect cells co-infected with baculovirus vectors
Put plainly: CDK4/Cyclin D assay. The settings on record: 1.0 μM; combinatorial library compounds. An outline of the steps: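 Insect-cell-expressed CDK4/cyclin D3 (50 nM) phosphorylating His-tagged Rb fragment (residues 386-928) with 25 μM [^32P]ATP in HEPES pH 7.4, MgCl2, 2% DMSO; 20 min at 30 °C, EDTA stop. Filter-captured 32P by phosphorimager; apparent Ki from competitive or tight-binding inhibition fits.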

For experiment [4], the target named is T3, phosphorylated VEGF-R2Δ50 (FLVK-P) (Homo sapiens, UniProt P35968, DEL940-989/E990V).
T3 construct: VEGF-R2Δ50 contains residues 806-939 and 990-1171; made in house; host or cells: baculovirus/insect cells
Put plainly: VEGF-R2 coupled spectrophotometric (FLVK-P) assay. The settings on record: combinatorial library compounds; for inhibition at 20 µM: read-out: VEGF % inhibition at 20 μM, 20 μM. The method in brief:
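Baculovirus-expressed human VEGF-R2Δ50 (residues 806-939/990-1171, E990V) was autophosphorylated with 3 mM ATP, 40 mM MgCl2 for 2 h at 4° C. ADP formation was coupled via PK/LDH to NADH oxidation, read at 340 nm, with 5.1 mM poly(E4Y1), 1 mM ATP, 25 mM MgCl2, Hepes pH 7.5. Ki came from activity across compound concentrations.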

SMILES strings stand for the structures.

T2 sequence (P11802 whole entry): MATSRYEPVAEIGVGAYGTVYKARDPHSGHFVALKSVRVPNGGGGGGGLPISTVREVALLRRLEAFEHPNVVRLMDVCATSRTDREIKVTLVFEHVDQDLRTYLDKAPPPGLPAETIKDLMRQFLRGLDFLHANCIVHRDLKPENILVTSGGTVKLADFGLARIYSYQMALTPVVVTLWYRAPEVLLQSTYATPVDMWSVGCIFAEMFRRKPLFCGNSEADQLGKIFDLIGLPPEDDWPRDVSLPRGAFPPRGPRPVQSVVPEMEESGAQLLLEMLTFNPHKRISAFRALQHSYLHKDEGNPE
T2 sequence (P30281 whole entry partner): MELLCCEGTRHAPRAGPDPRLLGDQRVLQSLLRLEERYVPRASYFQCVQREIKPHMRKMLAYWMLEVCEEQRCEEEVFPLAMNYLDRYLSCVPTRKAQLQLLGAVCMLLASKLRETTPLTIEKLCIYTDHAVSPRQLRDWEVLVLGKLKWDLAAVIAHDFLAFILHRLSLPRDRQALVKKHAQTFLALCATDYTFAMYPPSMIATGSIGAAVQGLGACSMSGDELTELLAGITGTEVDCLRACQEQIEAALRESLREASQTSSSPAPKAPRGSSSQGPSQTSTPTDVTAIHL
T3 sequence (P35968 with tags, fused parts or gaps DEL940-989/E990V limits assumed): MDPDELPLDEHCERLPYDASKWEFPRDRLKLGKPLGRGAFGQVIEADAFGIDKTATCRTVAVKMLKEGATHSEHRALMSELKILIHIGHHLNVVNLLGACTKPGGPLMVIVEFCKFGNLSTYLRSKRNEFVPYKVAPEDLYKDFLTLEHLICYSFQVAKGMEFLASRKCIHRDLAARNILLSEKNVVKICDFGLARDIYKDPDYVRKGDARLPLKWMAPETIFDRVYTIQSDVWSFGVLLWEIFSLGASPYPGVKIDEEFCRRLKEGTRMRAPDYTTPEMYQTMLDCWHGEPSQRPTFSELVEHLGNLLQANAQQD

Consider `COc1cccc(-c2csc(-c3sc(Nc4ccc(S(N)(=O)=O)cc4)nc3N)n2)c1`, for which the inhibition (commonly the change of the read-out against control, counted positive when it falls) at 20 µM worked out at 15.2% in experiment [1] and 23% in experiment [4]. The figures for the inhibition at 1 µM in experiment [2] and in experiment [3] were 5.9% and -4.2%, respectively.
`CCc1cc2c(cc1-c1csc(-c3sc(Nc4ccc(C(C)C)cc4)nc3N)n1)C(C)(C)CCC2(C)C`: the values for the inhibition at 20 µM in experiment [1] and in experiment [4] were 6.5% and 13%, respectively. The inhibition at 1 µM in experiment [2] was determined as 6.2%; in experiment [3], 61.4%.
On to `Cc1c(F)cc(-c2csc(-c3sc(Nc4ccc(S(N)(=O)=O)cc4)nc3N)n2)cc1Cl` [drawing 440], for which the results for the inhibition at 20 µM in experiment [1] and in experiment [4] were 21.1% and 5%, respectively. Also, the inhibition at 1 µM in experiment [2] came to 68%; in experiment [3], 75%.
In the case of `CC(C)c1ccc(Nc2nc(N)c(-c3nc(-c4ccc5c(c4)CCC(=O)N5)cs3)s2)cc1`, the inhibition at 20 µM in experiment [1] was 20.9%; in experiment [4] it was 21%. Moreover, the inhibition at 1 µM in experiment [2] is 29.1%; in experiment [3], 59.5%.
With `COc1ccc(-c2csc(-c3sc(Nc4ccc(S(N)(=O)=O)cc4)nc3N)n2)cc1` [drawing 399], the inhibition at 20 µM in experiment [1] is 6.9%. In addition, the “CDK2 % Inhibition at 1.0 μM” value in experiment [2] is recorded as 10.7%. Besides, the “CDK4 % Inhibition at 1.0 μM” value in experiment [3] was determined as 9.3%. The “VEGF % inhibition at 20 μM” value in experiment [4] is 48%.
With `CC(C)c1ccc(Nc2nc(N)c(-c3nc(-c4c(Cl)c(Cl)nc(Cl)c4Cl)cs3)s2)cc1`, the inhibition at 20 µM in experiment [1] came to 19.3%; in experiment [4], 30%. The inhibition at 1 µM amounted to 12.5% in experiment [2] and 72.7% in experiment [3].
Consider `Cn1cc(-c2csc(-c3sc(Nc4ccc(S(N)(=O)=O)cc4)nc3N)n2)cc1C(=O)C(Cl)(Cl)Cl`, for which the inhibition at 20 µM is 3.3% in experiment [1] and -4% in experiment [4]. Also, the results for the inhibition at 1 µM in experiment [2] and in experiment [3] were 23.2% and 14%, respectively.
The like results for `Cc1c(F)cc(-c2csc(-c3sc(Nc4ccc(C(C)C)cc4)nc3N)n2)cc1Cl` were, in that order, 22.8%, 18%, 28.2% and 88.6%.
For the compound `CC(C)c1ccc(Nc2nc(N)c(-c3nc(-c4cccc(Br)c4)cs3)s2)cc1`, the inhibition at 20 µM in experiment [1] was determined as 12%; in experiment [4] it was 5%. The inhibition at 1 µM in experiment [2] came out at 14.6%; in experiment [3], 48.1%.
Regarding `CN(C)c1ccc(Nc2nc(N)c(-c3nc(-c4cc(Br)c(Cl)s4)cs3)s2)cc1`, the figures for the inhibition at 20 µM in experiment [1] and in experiment [4] were 22.8% and 18%, respectively. Moreover, the inhibition at 1 µM in experiment [2] came out at 17.6%; in experiment [3], 69.1%.
For `Cc1onc(-c2ccccc2)c1-c1csc(-c2sc(Nc3ccc(N(C)C)cc3)nc2N)n1`, the inhibition at 20 µM stood at 8.1% in experiment [1] and 25% in experiment [4]. The inhibition at 1 µM in experiment [2] turned out to be 8.3%; in experiment [3], 59.8%.
With `CN(C)c1ccc(Nc2nc(N)c(-c3nc(-c4ccccc4)cs3)s2)cc1` [drawing 561], the “CHK1 % Inhibition at 20 μM” value in experiment [1] worked out at 17.5%. Moreover, the “CDK2 % Inhibition at 1.0 μM” value in experiment [2] was 19.7%. Moreover, the “CDK4 % Inhibition at 1.0 μM” value in experiment [3] worked out at 65.1%. Moreover, in experiment [4], the “VEGF % inhibition at 20 μM” value was determined as 30%.
With `CC(C)c1ccc(Nc2nc(N)c(-c3nc(-c4ccc(-c5ccc(Cl)cc5Cl)o4)cs3)s2)cc1`, the inhibition at 20 µM in experiment [1] was -7.9%; in experiment [4], 3%. The inhibition at 1 µM in experiment [2] was 15.1%; in experiment [3], 49.7%.
The like results for `COc1ccc(-c2csc(-c3sc(Nc4ccc(C(C)C)cc4)nc3N)n2)c(OC)c1` were, in that order, 1.8%, -10%, -22.6% and 38.2%.
As for `Nc1nc(Nc2ccc(S(N)(=O)=O)cc2)sc1-c1nc(-c2ccc(O)cc2)cs1` [drawing 415], the results for the inhibition at 20 µM in experiment [1] and in experiment [4] were 18.7% and 56%, respectively. Further, the inhibition at 1 µM in experiment [2] came out at 57.9%; in experiment [3], 51.3%.
As to `Cc1cc(-c2csc(-c3sc(Nc4ccc(S(N)(=O)=O)cc4)nc3N)n2)ccc1Cl`, the inhibition at 20 µM in experiment [1] turned out to be 15.9%; in experiment [4] it was 2%. The inhibition at 1 µM in experiment [2] was 8.3%; in experiment [3], -28%.
Regarding `CN(C)c1ccc(Nc2nc(N)c(-c3nc(-c4ccc5c(c4)C(C)(C)CCC5(C)C)cs3)s2)cc1`, the inhibition at 20 µM in experiment [1] was 32.9%; in experiment [4], 18%. Besides, the figures for the inhibition at 1 µM in experiment [2] and in experiment [3] were 3.1% and 74.4%, respectively.
With `CCOC(=O)c1cc(-c2csc(-c3sc(Nc4ccc(N(C)C)cc4)nc3N)n2)on1`, the results for the inhibition at 20 µM in experiment [1] and in experiment [4] were -4.5% and 9%, respectively. The results for the inhibition at 1 µM in experiment [2] and in experiment [3] were 13.4% and 33.7%, respectively.
Regarding `Nc1nc(Nc2ccc(S(N)(=O)=O)cc2)sc1-c1nc(-c2ccccc2)cs1` [drawing 435], the “CHK1 % Inhibition at 20 μM” value in experiment [1] is reported as 12.3%. The “CDK2 % Inhibition at 1.0 μM” value in experiment [2] stood at 60.8%. In addition, in experiment [3], the “CDK4 % Inhibition at 1.0 μM” value is recorded as 43.3%. Moreover, in experiment [4], the “VEGF % inhibition at 20 μM” value is recorded as 34%.
On to `CC(C)c1ccc(Nc2nc(N)c(-c3nc(-c4ccc5ccccc5c4)cs3)s2)cc1`, for which the inhibition at 20 µM was 10.7% in experiment [1] and -2% in experiment [4]. Also, the inhibition at 1 µM was 17.2% in experiment [2] and 51.2% in experiment [3].
With `CN(C)c1ccc(Nc2nc(N)c(-c3nc(-c4ccc(Cl)c(Cl)c4)cs3)s2)cc1`, the inhibition at 20 µM stood at 5.1% in experiment [1] and 0% in experiment [4]. The inhibition at 1 µM in experiment [2] was 9.2%; in experiment [3], -6.5%.
With `CN(C)c1ccc(Nc2nc(N)c(-c3nc(-c4ccc(F)cc4)cs3)s2)cc1`, the results for the inhibition at 20 µM in experiment [1] and in experiment [4] were 41.7% and 41%, respectively. The inhibition at 1 µM was determined as 34.8% in experiment [2] and 56% in experiment [3].
As to `CCOC(=O)c1ccccc1-c1csc(-c2sc(Nc3ccc(C(C)C)cc3)nc2N)n1`, the inhibition at 20 µM in experiment [1] and in experiment [4] was 26% in each case. Moreover, the inhibition at 1 µM in experiment [2] stood at 29.2%; in experiment [3], 81.6%.
`COc1ccccc1-c1csc(-c2sc(Nc3ccc(N(C)C)cc3)nc2N)n1`: the inhibition at 20 µM in experiment [1] amounted to 14.8%; in experiment [4] it was 0%. In addition, the inhibition at 1 µM in experiment [2] was -6.4%; in experiment [3] it was 8.7%.
As to `Nc1nc(Nc2ccc(S(N)(=O)=O)cc2)sc1-c1nc(-c2ccccc2OC(=O)c2ccccc2)cs1`, the inhibition at 20 µM is -1.6% in experiment [1] and 9% in experiment [4]. The inhibition at 1 µM in experiment [2] was found to be 29%; in experiment [3], 2.3%.
With `CC1(C)CCC(C)(C)c2cc(-c3csc(-c4sc(Nc5ccc(S(N)(=O)=O)cc5)nc4N)n3)ccc21`, the inhibition at 20 µM is 13.1% in experiment [1] and -2% in experiment [4]. The figures for the inhibition at 1 µM in experiment [2] and in experiment [3] were 35.9% and 31.8%, respectively.
The corresponding values for `Nc1nc(Nc2ccc(S(N)(=O)=O)cc2)sc1-c1nc(-c2ccccc2[N+](=O)[O-])cs1` are 25.6%, 47%, 55.4% and 57.8%.
For `CN(C)c1ccc(Nc2nc(N)c(-c3nc(-c4ccc(O)c(O)c4)cs3)s2)cc1`, the inhibition at 20 µM was 46.5% in experiment [1] and 34% in experiment [4]. Further, the inhibition at 1 µM in experiment [2] was determined as 16.8%; in experiment [3] it was 53%.
Regarding `CC(C)c1ccc(Nc2nc(N)c(-c3nc(-c4ccc(F)cc4)cs3)s2)cc1`, the results for the inhibition at 20 µM in experiment [1] and in experiment [4] were 39.8% and 48%, respectively. For the same compound, the figures for the inhibition at 1 µM in experiment [2] and in experiment [3] were 16.1% and 80.7%, respectively.

The record behind these values is patent US6620828B2, “Thiazole compounds and pharmaceutical compositions for inhibiting protein kinases and methods for their use” (Agouron Pharmaceuticals, Inc., priority 1999, dated 2003).
